Results on 4 compounds are retold here after PMC6332318, “Synthetic Development of New 3-(4-Arylmethylamino)butyl-5-arylidene-rhodanines under Microwave Irradiation and Their Effects on Tumor Cell Lines and against Protein Kinases” (Molecules, 2015).

A value given as a limit tells only on which side of the number the result lay.

One assay concerns the target T1, HsHaspin (Homo sapiens, UniProt Q8TF76).
T1 construct: HsHaspin-kd aa 470 to 798; GST (from vector pGEX-6P-3; tag and N-terminal position are own knowledge of the vector) (N); made in house; host or cells: Escherichia coli BL21-KRX
T1 sequence (Q8TF76 470-798): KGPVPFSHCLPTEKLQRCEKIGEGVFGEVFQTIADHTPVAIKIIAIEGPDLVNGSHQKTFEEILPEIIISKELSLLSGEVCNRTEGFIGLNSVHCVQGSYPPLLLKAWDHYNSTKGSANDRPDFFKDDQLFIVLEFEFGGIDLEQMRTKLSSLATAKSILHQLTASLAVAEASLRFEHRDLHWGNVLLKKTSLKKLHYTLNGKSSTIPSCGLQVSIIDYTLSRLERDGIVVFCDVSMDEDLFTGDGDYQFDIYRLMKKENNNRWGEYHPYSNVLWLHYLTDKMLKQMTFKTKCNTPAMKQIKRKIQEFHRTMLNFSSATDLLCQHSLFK
As to the kind of experiment: protein kinase assay, [γ-33P] ATP. In kind it is biochemical. On the procedure:
Then, we evaluated the intermediates salts 6a–f and fourteen final compounds 9a–n on four protein kinases: HsCDK5-p25 (cyclin-dependant kinase 5-p25), SsGSK-3α/β (glycogen synthase kinase-3α/β) SsCK1δ/ε (Caseine kinase 1) and HsHaspin as an essential mitotic kinase. […] IC50 values were determined from dose-response curves.
ATP (3000 Ci/mmol; 10 mCi/mL) in a final volume of 30 µL. After 30 min incubation at 30 °C, the reaction was stopped by harvesting, using a FilterMate harvester (Packard, Meriden, CT, USA), onto P81 phosphocellulose papers (GE Healthcare, Velizy-Villacoublay, France) which were washed in 1% phosphoric acid. Scintillation fluid was added and the radioactivity measured in a Packard counter. Blank values were subtracted and activities calculated as pmoles of phosphate incorporated during the 30 min incubation. The activities were expressed in a percentage of the maximal activity, i.e., in the absence of inhibitors. Controls were performed with appropriate dilutions of DMSO. CK1 and Haspin peptide substrates were obtained from Proteogenix (Oberhausbergen, France).
Haspin kinase domain (HsHaspin-kd aa 470 to 798) encoding cDNA, obtain by RT-PCR, was cloned into pGex-6P-3. The fusion protein was expressed in Escherichia coli strain BL21-KRX (Promega, Madison, WI, USA) and purified by affinity chromatography on glutathione-agarose beads (Sigma). Haspin-kd activity was assayed with 3 µM Histone H3 (1-21) peptide, a specific Haspin substrate, ([…]), in Buffer H (MOPS 25 mM pH 7.5; 10 mM MgCl2).

Assay [1] deals with panel of seven representative tumoral cell lines. As to the kind of experiment: in vitro inhibition of cell proliferation, whole panel. In kind it is cell-based. The settings on record: all cell lines of the panel, without selectivity; read-out: IC50, moderate antitumor activities in all cell lines of the panel. The protocol: As an initial effort to investigate their in vitro bioactivity, the new synthesized 3-(4-arylmethylamino)butyl-2-thioxo-1,3-thiazolidine-4-one 9a–n and also their precursors 6a–f were evaluated for their in vitro inhibition of cell proliferation. For this study, we used a panel of seven representative tumoral cell lines, namely HuH7 D12 (differential hepato cellular carcinoma), Caco 2 (differentiating colorectal adenocarcinoma), MDA-MBD231 ([…]), HCT 116 (actively proliferating colorectal adenocarcinoma), PC3 (prostate carcinoma), NCI-H727 (lung carcinoma), HaCat keratinocyte and, diploid skin fibroblasts as normal cell lines for control.
Skin diploid fibroblastic cells were provided by BIOPREDIC International Company (Rennes, France). Caco2 (Ref ECACC: 86010202), Huh-7D12 (Ref ECACC: 01042712), MDA-MB-231 (Ref ECACC: 92020424), HCT-116 (Ref ECACC: 91091005), PC3 (Ref ECACC: 90112714), NCI-H727 (Ref ECACC: 94060303) cell lines were obtained from the ECACC collection and HaCaT (from Cell Lines Service, Eppelheim, Germany). Cells were grown according to ECACC recommendations. […] Cells were fixed in cooled solution of 90% ethanol/5% acetic acid, nuclei were stained with Hoechst 3342 (Sigma) and counted using automated imaging analysis (Cellomics Arrayscan VTI/HCS Reader, Thermo/Scientific, Waltham, MA, USA). The IC50 were graphically determined.

In the case of `O=C1/C(=C/c2ccc3c(c2)OCO3)SC(=S)N1CCCCNCc1ccc2c(c1)OCO2` [Compound 9h, (5Z)3-[4-(1,3-Benzodioxol-5-ylmethylamino)butyl]-5-(1,3-benzodioxol-5-ylmethylene)-2-thioxo-1,3-thiazolidin-4-one], the IC50 is greater than 10 µM against HsHaspin and 10 to 17 µM in assay [1]. The compound `O=C1/C(=C/c2ccc3c(c2)OCCO3)SC(=S)N1CCCCNCc1ccc2c(c1)OCO2` [Compound 9i, (5Z)3-[4-(1,3-Benzodioxol-5-ylmethylamino)butyl]-5-(2,3-dihydro-1,4-benzodioxin-6-ylmethylene)-2-thioxo-1,3-thiazolidin-4-one] came in with an IC50 on HsHaspin greater than 10 µM. At HsHaspin, `O=C1/C(=C/c2ccc(O)cc2)SC(=S)N1CCCCNCc1ccc2c(c1)OCO2` [Compound 9j, (5Z)3-[4-(1,3-Benzodioxol-5-ylmethylamino)butyl]-5-(4-hydroxy-benzylidene)-2-thioxo-1,3-thiazolidin-4-one] displayed an IC50 greater than 10 µM. The same measure, in the same setting: as for `COc1cc(/C=C2\SC(=S)N(CCCCNCc3ccc4c(c3)OCCO4)C2=O)ccc1O` [Compound 9n, (5Z)3-[4-(2,3-Dihydro-benzo[1,4]dioxin-6-ylmethylamino)butyl]-5-(4-hydroxy-3-methoxybenzylidene)-2-thioxo-1,3-thiazolidin-4-one], the figure is greater than 10 µM.
